Measured values taken from patent US20240408145A1, “Gene Therapy” (Ospedale San Raffaele S.r.l., priority 2021, published 2024).
Entries after “also recorded” stand apart in the source; their conditions may differ.

Tests used:
edited human CD34+ HSPCs = test: CD34+ HSPC xenotransplantation in NSG mice; assay type: in vivo
human CD34+ HSPCs = test: HDR gene editing efficiency in HSPCs (ddPCR, GFP flow cytometry); assay type: cell-based
IL8, CXCL10, p21, p16 = test: Gene expression in BM-derived HSPCs (qPCR); assay type: cell-based, human; details: HS/AAV6 ± Anakinra
Description: (§1) For gene expression analyses, total RNA was extracted using either miRNeasy Micro Kit (QIAGEN) according to the manufacturer's instructions and DNase treatment was performed using RNase-free DNase Set (QIAGEN). cDNA was synthetized with iScript cDNA Synthesis Kit (Bio-Rad). cDNA was then pre-amplified using TaqMan PreAmp Master Mix (ThermoFisher) and used for q-PCR in a Viia7 Real-time PCR thermal cycler using both Fast SYBR Green Master Mix (Thermofisher), after standard curve method optimization to reach the 100% primer efficiency for each couple of primers listed in 1. The relative expression of each target gene was first normalized to GUSB housekeeping genes expression and then represented as 2^-DCt for each sample or as fold changes (2^-DDCt) relative to the indicated control conditions.

CDKN1A (p21) = test: p21 expression in edited HSPCs (qPCR); assay type: cell-based, human; details: CB HSPCs, HS/AAV6 ± Anakinra, 24 and 96 h
Description: as §1

[1] = test system: BM-derived human CD34+ cells; test: Senescence markers (p16, SA-β-Gal) in BM-derived cells of the human graft; assay type: in vivo, NSG mice

Anakinra: recombinant and slightly modified form of the Human interleukin-1 receptor antagonist (IL-1Ra); SEQ ID NO: 3
Percentage of human edited (GFP+) cells in peripheral blood (edited human CD34+ HSPCs; HS/AAV6 ± Anakinra): higher and stable percentage of GFP+ cells; also recorded: reproducible higher and stable levels of HDR-edited cells | Percentage of GFP+ cells in BM human graft, HSPC, B and myeloid lineages (edited human CD34+ HSPCs; endpoint, HS/AAV6 ± Anakinra): improved long-term reconstitution | Percentage of human HDR-edited cells in bone marrow (edited human CD34+ HSPCs; mPB HSPCs, 15 weeks): trend of higher levels of HDR-edited cells | Percentage of human CD45+ cells in bone marrow (edited human CD34+ HSPCs; mPB HSPCs, matching low doses, 15 weeks): comparable human engraftment independently of Anakinra treatment | Percentage of human CD45+ cells in peripheral blood (plateau of circulating cells) (edited human CD34+ HSPCs; saturating cell doses, HS/AAV6 ± Anakinra): 35-40% | Percentage of HDR-edited alleles (ddPCR) (human CD34+ HSPCs; CB HSPCs, AAVS1 editing (HS/AAV6), inhibitor at time of GE (Anakinra 50 ng/μl, SC514 25 μM, GSE56 mRNA, ATMi) vs standard protocol): equal percentage of HDR-edited alleles; also recorded: did not affect HSPC ability to repair via HDR | Percentage of GFP+ cells within HSPC subpopulations (GE efficiency) (human CD34+ HSPCs; CB HSPCs, HS/AAV6, inhibitor at time of GE vs standard protocol): maintained the efficiency of GE across all HSPC subpopulations; also recorded: no significant differences in GE efficiency in all HSPC subpopulations | HSPC ability to repair via HDR (GFP+ cells) (human CD34+ HSPCs; HSPCs edited with COMBO): without impairing HSPC ability to repair via HDR | HDR ability / percentage of GFP+ cells in HSPC subpopulations (human CD34+ HSPCs; mPB-derived HSPCs, AAVS1, inhibitor within 15 minutes upon GE): did not affect HSPC ability to repair via HDR | Relative expression of pro-inflammatory cytokines (IL8, CXCL10) in BM-derived edited CD34+ cells (IL8, CXCL10, p21, p16): decrease in pro-inflammatory cytokines expression | Relative expression of CDKN1A (p21) (CDKN1A (p21)): upregulated upon GE compared to negative controls independently from Anakinra treatment | Percentage of senescent cells (p16, SA-β-Gal) in BM-derived CD34+ / HDR-edited cells of the human graft ([1]; NSG mice, endpoint 15-18 weeks, inhibitor at time of ex vivo GE): decrease | Senescence burden (p16+) in the human graft ([1]; mPB HSPCs, BM-derived HSPC): reduction in the senescence burden in the human graft; also recorded: dampened GE-related senescence establishment
